Reference: PMC10726355, “Small Molecule Ligands of the BET-like Bromodomain, SmBRD3, Affect Schistosoma mansoni Survival, Oviposition, and Development” (Journal of Medicinal Chemistry, 2023)
In brackets after ≈: the same amount, converted by molar mass. Entries after “also recorded” stand apart in the source; their conditions may differ. Read-outs that look alike come from different tables or passages of the source.

How the values were obtained:
[1] = target: SmBRD3(2) (Schistosoma mansoni, UniProt A0A5K4ESD7); assay: biochemical; format: binding; conditions: for N number, binding to SmBRD3(2), Repeat 1 / N number, binding to SmBRD3(2), Repeat 2 / N number, binding to SmBRD3(2), Repeat 3 / N number, binding to SmBRD3(2), Mean: ITC stoichiometry; for N number, binding to SmBRD3(2), Mean: mean of repeats
[2] = target: T1, HsBRD4(1) (Homo sapiens, UniProt O60885); assay: Isothermal titration calorimetry (ITC), HsBRD4(1); format: binding; conditions: single value ± error of the curve fit
T1 construct: HsBRD4(1) Kd (ITC, nM); made in house; host or cells: E. coli BL21(DE3)

[3] = CAD solubility assay; format: physicochemical; conditions: phosphate buffered saline, pH 7.4, phosphate buffered saline at pH 7.4; read-out: Aqueous Solubility by CAD
Description: A CAD solubility assay was carried out by Physchem Team, Discovery Analytical, NCE Molecular Discovery at GSK. 5 μL of 10 mM DMSO stock solution was diluted to 100 μL with pH 7.4 phosphate buffered saline, equilibrated for 1 h at room temperature, and filtered through Millipore MultiscreenHTS-PCF filter plates (MSSL BPC). The filtrate was quantified using a suitably calibrated charged aerosol detector.[45]

[4] = chromLogD assay; format: physicochemical; conditions: reversed phase HPLC column (Gemini NX C18), pH 7.4
Description: Lipophilicity: a chromLogD assay was carried out by the Physchem Team, Discovery Analytical, NCE Molecular Discovery at GSK. The chromatographic hydrophobicity index (CHI)[46],[47] values were measured using reversed phase HPLC column (50 × 2 mm […] Gemini NX C18, Phenomenex, UK) with fast acetonitrile gradient at starting mobile phase of pHs 2, 7.4, or 10.5. CHI values were derived directly from the gradient retention times using calibration parameters for standard compounds. The CHI value approximates to the volume % organic concentration when the compound elutes. CHI was linearly transformed into a chromLogD[48] value by least-squares fitting of experimental CHI values to calculated cLogP values for over 20000 research compounds.

[5] = target: SmBRD3(1,2) (Schistosoma mansoni, UniProt A0A5K4ESD7); assay: biochemical; format: binding; conditions: for N number, binding to SmBRD3(1,2): ITC stoichiometry, n=1 ± error of curve fit
[6] = tested on: adult male S. mansoni; assay: Determination of compound parasite permeability (LCMS of worm lysate); format: in vitro ADME, Schistosoma mansoni; conditions: worms treated with 20 μM of the same compound for 24 h; LCMS
[7] = tested on: S. mansoni schistosomula; assay: Ex vivo schistosomula screening (Roboworm high content imaging); design: species or system Schistosoma mansoni; conditions: 20 μM (Figure 7) or 10 μM (Figure S48); 72 h
Description: A high-throughput imaging platform that quantifies both phenotype and motility ex vivo, was used to screen compounds against schistosomula; their effects were assessed as previously described.[20] Briefly, the schistosomula stage of S. mansoni was obtained by mechanical transformation of cercariae, dispensed into 384-well tissue culture plates, and dosed with 20 μM (Figure 7) or 10 μM (Figure S48) of each compound. Following 72 h coincubation of the schistosomula and compound, the plate was subjected to high content imaging to quantify the effects of each compound.
S. mansoni schistosomula were obtained by mechanical transformation from cercariae as previously described,[64] distributed in 384-well tissue culture plates (PerkinElmer, catalogue number 6007460) at 120 parasites/well and dosed with the selected compounds as previously reported.[65]−[68] For this study, each compound (as 10 mM DMSO stock solution) was initially tested at two concentration points (20 and 10 μM final concentration, in duplicates) in at least four independent screens (Z′ scores above 0.35).[69] Each screen contained both positive (10 μM auranofin (AUR) in 0.625% DMSO) and negative (0.625% DMSO) controls. […] Following 72 h schistosomula/compound coincubation, the plate was analyzed by the Roboworm platform.[70] EC50 values were calculated from the titrated concentrations by nonlinear regression, after log transformation of concentrations and data normalization using GraphPad Prism 7.02.

[8] = tested on: S. mansoni adult worms; assay: Ex vivo adult worm screening (motility, IVLEs, pairing); design: species or system Schistosoma mansoni; conditions: 72 h
Description: S. mansoni adult worms were recovered by hepatic portal vein perfusion from TO mice (Mus musculus HsdOLa:TO - Tuck Ordinary; Envigo, UK) that were percutaneously infected 7 weeks earlier with 180 cercariae.[65],[71] Following perfusion, schistosomes were washed and processed as previously described.[65],[66] Subsequently, schistosome pairs were seeded into 48 well tissue culture plates (1 worm pair/well, in duplicate) and dosed with the compounds (20 μM in 0.2% DMSO). DMSO (0.2%) and praziquantel (10 μM in 0.1% DMSO) were also included as negative and positive controls, respectively. Parasite motility was assessed by a digital image processing-based system (WormassayGP2),[66] modified after Wormassay.[72]In vitro laid eggs (IVLEs) were enumerated and the presence or absence of paired worms was noted.

[9] = tested on: S. mansoni miracidia; assay: Ex vivo miracidia to sporocyst transformation screening; design: species or system Schistosoma mansoni; conditions: 0.5-25 μM in 1% DMSO, 48 h
Description: S. mansoni miracidia were obtained by hatching of schistosome eggs as previously described.[73] The resulting miracidial suspension was collected, washed with Chernin’s balanced salt solution (CBSS),[73] and enumerated prior to being used for ex vivo miracidia to sporocyst screens as previously reported.[66],[73] Each compound was tested at 0.5, 2.0, 5.0, 10, and 25 μM final concentrations (in 1% DMSO). Each treatment was set up in duplicate (15–25 miracidia/well). Each titration was performed in three independent experiments (two technical replicates per data point). Parasites cultured in CBSS (containing 1% DMSO) were included as negative controls. After 48 h incubation at 26 °C in the dark, dead, fully transformed and partially transformed miracidia were enumerated as previously described.[74],[75]

[10] = tested on: SmBRD3(1,2); assay: Differential scanning fluorimetry (thermal shift), SmBRD3(1,2); conditions: DSF; 50 μM compound
Description: Reported ΔTm values are the mean of two replicates.
The differential scanning fluorimetry (DSF) or thermal stability assays were carried out following the protocol described by Niesen et al. and data were analysed as described previously.8 Thermal melting experiments were carried out using the Mx3005p real-time PCR machine (Agilent) and employing a protein concentration of 5 μM for the schistosomal bromodomains [SmBRD3(2),
the DMSO content was 0.5% (v/v). Buffer conditions were 50 mM HEPES buffer, pH 7.5, 500 mM NaCl and a 1:500 dilution of SYPRO® Orange (Invitrogen, CA) was used. The 96-well PCR plates were sealed and centrifuged for 2 min at 1000 rpm at 25 °C before measurement. The temperature was raised with a step of 1 °C per 30 s from 25 °C to 85 °C, and fluorescence readings were taken
difference between the transition midpoints of sample and reference wells containing protein without inhibitor in the same plate. Reported ΔTm values are the mean of two replicates.
Isothermal titration calorimetry experiments were performed on a MicroCal PEAQ-ITC Automated or Manual (Malvern) and analysed with the MicroCal PEAQ-ITC Analysis software (Malvern 1.1.0.1262) using a single binding site model. For each experiment, the first data point was removed from the analysis. The proteins were dialysed at 4 °C overnight in a Slide-A-LyzerR MINI Dialysis Device (2000 MWCO; Thermo Scientific Life Technologies) into 50 mM HEPES, 150 mM NaCl containing 0.2% DMSO; pH 7.4. Proteins were centrifuged to remove aggregates (3 min, 3000 rpm, 25 °C).
Compounds were dissolved as a DMSO stock solution and diluted to the required concentration using dialysis buffer (DMSO free) and to a final DMSO concentration of 0.2% (unless otherwise specified). The cell was stirred at 750 rpm, reference power set to 5 μcal/s and temperature held at 25 °C. After an initial delay of 60 s, 19 x 2 μL injections (first injection 0.4 μL) were performed with a spacing of 180 s. […]

[11] = ITC, read-out: SmBRD3(2) pKd (converted)
[12] = ITC, single run ± error of curve fit, Repeat 1, read-out: SmBRD3(2) Kd, Repeat 1
[13] = ITC, single run ± error of curve fit, Repeat 2, read-out: SmBRD3(2) Kd, Repeat 2
[14] = ITC, single run ± error of curve fit, Repeat 3, read-out: SmBRD3(2) Kd, Repeat 3

Compound | N number, binding to SmBRD3(2), Repeat 1 ([1]; Repeat 1) | N number, binding to SmBRD3(2), Repeat 2 ([1]; Repeat 2) | N number, binding to SmBRD3(2), Repeat 3 ([1]; Repeat 3) | N number, binding to SmBRD3(2), Mean [1] | Kd [1, 11] [nM] | Kd [1, 13] [nM] | Kd [1, 14] [nM] | Kd ([1]; read-out: SmBRD3(2) Kd) [nM] | solubility at 1 h [3] [µM] | chromatographic logD [4] | SmBRD3(2) Kd [1] | SmBRD3(2) Kd, Repeat 1 [1] | also measured
CC(=O)N1c2ccc(-c3ccc(C(=O)O)cc3)cc2[C@H](Nc2ccc3ccsc3c2)C[C@@H]1C [Compound 9, 4-{(2S,4R)-1-Acetyl-4-[(1-benzothiophen-6-yl)amino]-2-methyl-1,2,3,4-tetrahydroquinolin-6-yl}benzoic Acid] | 1.52 ± 2.2e-2 | 1.57 ± 3.4e-2 | 1.64 ± 3.3e-2 | 1.58 | 631 | 778 ± 179 | 753 ± 176 | 701 ± 64.9 | ≥ 259 | 2.83 |  |  | Kd [1, 12]: 572 ± 103 nM; HsBRD4(1) Kd (ITC) [2]: high affinity; Kd [2]: 64.4 ± 20.7 nM
CC(=O)N1c2ccc(-c3ccc(C(=O)O)cc3)cc2[C@@H](Nc2ccc3ccsc3c2)C[C@H]1C [Compound 10, 4-{(2R,4S)-1-Acetyl-4-[(1-benzothiophen-6-yl)amino]-2-methyl-1,2,3,4-tetrahydroquinolin-6-yl}benzoic Acid] |  |  |  |  |  |  |  |  | > 259 | 2.83 | No detectable binding; also recorded: does not bind | No binding | SmBRD3(1,2) Kd ([5]; ITC, n = 1 ± error of the curve fit): No detectable binding
CC(=O)N1c2ccc(-c3ccc(C(=O)O)cc3)cc2[C@H](Nc2ccc3ncsc3c2)C[C@@H]1C [Compound 14, 4-{(2S,4R)-1-Acetyl-4-[(1,3-benzothiazol-6-yl)amino]-2-methyl-1,2,3,4-tetrahydroquinolin-6-yl}benzoic acid] | 1.42 ± 2.4e-2 | 1.54 ± 0.101 | 1.49 ± 5.4e-2 | 1.48 | 1260 | 1270 ± 779 | 1270 ± 349 | 1180 ± 86.7 | ≥ 260 | 1.78 |  |  | Kd [1, 12]: 1010 ± 160 nM
CC(=O)N1c2ccc(-c3ccc(C(=O)O)cc3)cc2[C@H](Nc2ccc3ncccc3c2)C[C@@H]1C [Compound 15, 4-{(2S,4R)-1-Acetyl-2-methyl-4-[(quinolin-6-yl)amino]-1,2,3,4-tetrahydroquinolin-6-yl}benzoic Acid] | 1.48 ± 2.5e-2 | 1.51 ± 2.0e-2 | 1.69 ± 1.8e-2 | 1.56 | 398 | 361 ± 70.2 | 411 ± 60.4 | 364 ± 26.3 |  |  |  |  | Kd ([1]; read-out: SmBRD3(2) Kd, Repeat 1): 320 ± 82.8 nM; HsBRD4(1) Kd (ITC) [2]: high affinity; Kd [2]: 13.5 ± 2.47 nM; Quantity of compound found in lysed adult worms [6]: lower quantities
CCOC(=O)c1ccc(-c2ccc3c(c2)[C@@H](Nc2ccc4ccsc4c2)C[C@@H](C)N3C(C)=O)cc1 [Compound 17, Ethyl 4-{(2R,4S)-1-Acetyl-4-[(1-benzothiophen-6-yl)amino]-2-methyl-1,2,3,4-tetrahydroquinolin-6-yl}benzoate] |  |  |  |  |  |  |  |  | 1 (≈ 0.485 µg/mL) | 7.61 | No binding | No binding | Effect on schistosomula motility [7]: did not have substantial effects; Effect on schistosomula phenotype [7]: did not have substantial effects; Effect on adult worm movement ([8]; 20 μM in 0.2% DMSO): some modest effects; Effect on egg count (in vitro laid eggs) ([8]; 20 μM): some modest effects; Toxicity to miracidia (dead parasites) [9]: toxic at the higher concentrations
Cc1noc(C)c1-c1cc(O)cc(C(O)c2ccccc2)c1 (centres unmarked) [OXFBD02 (1), OXFBD02, reference compound] |  |  |  |  |  |  |  |  |  |  |  |  | N number, binding to SmBRD3(1,2) [5]: 1.61 ± 3.3e-2; Kd ([5]; SmBRD3(1,2) Kd, ITC, n = 1 ± error of the curve fit): 683 ± 166 nM; Kd ([5]; SmBRD3(1,2) pKd, ITC): 631 nM; SmBRD3(2) Kd, Repeat 1 ([1]; ITC, single run ± error of curve fit, Repeat 1): No binding; SmBRD3(2) Kd ([1]; ITC, single value ± error of the curve fit or mean of 2-3 repeats ± s.e.m.): no binding detected; also recorded: No detectable binding; Effect on miracidia to sporocyst transformation ([9]; 26 °C): modest effects; Thermal stabilisation (ΔTm) of SmBRD3(1,2) [10]: stabilize SmBRD3(1,2)
(+)-JQ1 [(+)-JQ1 (5), reference compound] |  |  |  |  |  |  |  |  |  |  | no binding detected; also recorded: No detectable binding | No binding | SmBRD3(1,2) pKd ([5]; ITC): 6.4; N number, binding to SmBRD3(1,2) [5]: 3.87 ± 7.0 e-2; Kd ([5]; ITC, n = 1 ± error of the curve fit, read-out: SmBRD3(1,2) Kd): 445 ± 106 nM; Effect on schistosomula phenotype [7]: showed activity; Toxicity to miracidia (dead parasites) [9]: toxic at the higher concentrations; Thermal stabilisation (ΔTm) of SmBRD3(1,2) [10]: stabilize SmBRD3(1,2)
